Results from paper PMC9743095 (Journal of Medicinal Chemistry, 2022).
Read-outs that look alike come from different tables or passages of the source.

How the values were obtained:
Assay type in all cases: cell-based
CCRF-CEM = assay: cells; settings: Homo sapiens, 72 h; for Emax: read-out: MI%; for CC50: read-out: LC50
Protocol: (§1) The assay was contracted and carried out by WuXi AppTec (Shanghai) Co., Ltd. The tumor cell lines CCRF-CEM, HL-60, KG-1, MOLT-4, K562, MV4-11, THP-1, HEL92.1.7, NCI-H929, RPMI-8226, Jurkat, Z138, RL, HS445, HepG2, MCF-7, Bx-PC-3, HT29, MIA PaCa-2, and SW620 were seeded at cell densities of […] 10^3 cells/well in a 96-well plate the day before drug incubation. Then, the plates were incubated for 72 h with the different concentrations of compound to be tested. After the incubation period, 50 μL of MTS was added and the tumor cells were incubated for 4 h at 37 °C. The data were read and collected by a Spectra Max 340 absorbance microplate reader. The compounds were tested in duplicate with nine serial concentrations (3.16-fold titrations with 198 μM as the highest concentration), and the data were analyzed by XLfit software.

HEL92.1.7 = assay: cells; settings: for MI%: HEL92.1.7, maximum inhibitory effect over concentration range; for CC50: Homo sapiens, HEL 92.1.7, 72 h, read-out: LC50
Protocol: as §1

HL-60 = assay: cells; settings: Homo sapiens; for Emax: read-out: MI%; for CC50: read-out: LC50
Protocol: as §1

HS445 = assay: cells; settings: for MI%: HS445, maximum inhibitory effect over concentration range; for CC50: Homo sapiens, Hs 445, 72 h, read-out: LC50
Protocol: as §1

HepG2 = assay: cells; settings: Homo sapiens; for Emax: read-out: MI%; for CC50: read-out: LC50
Protocol: as §1

Jurkat = assay: cells; settings: for CC50: Homo sapiens, 72 h, read-out: LC50; for CC50 / MI%: Jurkat; for MI%: maximum inhibitory effect over concentration range
Protocol: as §1

K562 = assay: cells; settings: Homo sapiens; for Emax: read-out: MI%; for CC50: read-out: LC50
Protocol: as §1

KG-1 = assay: cells; settings: Homo sapiens, KG-1, 72 h, read-out: LC50
Protocol: as §1

MIA PaCa-2 = assay: cells; settings: for CC50: Homo sapiens, MIA PaCa-2, 72 h, read-out: LC50; for MI%: MIA PaCa-2, maximum inhibitory effect over concentration range
Protocol: as §1

MOLT-4 = assay: cells; settings: Homo sapiens; for Emax: read-out: MI%; for CC50: read-out: LC50
Protocol: as §1

NCI-H929 = assay: cells; settings: for CC50: Homo sapiens, NCI-H929, 72 h, read-out: LC50; for MI%: NCI-H929, maximum inhibitory effect over concentration range
Protocol: as §1

RL = assay: cells; settings: for CC50: Homo sapiens, 72 h, read-out: LC50; for MI%: maximum inhibitory effect over concentration range
Protocol: as §1

RPMI-8226 = assay: cells; settings: for CC50: Homo sapiens, RPMI-8226, 72 h, read-out: LC50; for MI%: RPMI-8226, maximum inhibitory effect over concentration range
Protocol: as §1

SW620 = assay: cells; settings: for CC50: Homo sapiens, SW-620, 72 h, read-out: LC50; for MI%: SW620, maximum inhibitory effect over concentration range
Protocol: as §1

THP-1 = assay: cells; settings: for CC50: Homo sapiens, THP-1, 72 h, read-out: LC50; for MI%: THP-1, maximum inhibitory effect over concentration range
Protocol: as §1

Z138 = assay: cells; settings: for CC50: Homo sapiens, Z-138, 72 h, read-out: LC50; for MI%: Z138, maximum inhibitory effect over concentration range
Protocol: as §1

CEM cell line = assay: ATP viability assay; settings: for CC50: Homo sapiens, CCRF-CEM, read-out: LC50
Protocol: (§2) HL-60 (ATCC CCL-240), K562 (ATCC CCL-243), CCRF-CEM (ATCC CRM-CCL-119), and RL (ATCC CRL-2261) leukemia cell lines were obtained from the American Type Culture Collection (ATCC), Middlesex. HL-60 and K562 cell lines are deoxynucleotidyl transferase-negative (TdT^–ve), whereas CCRF-CEM cell line is TdT^+ve. They were cultured in RPMI-1640 medium (Sigma-Aldrich, U.K.), which were supplemented with 10% fetal bovine serum (FBS) (PAA Laboratories), 1% amphotericin B (5.5 mL), and 1% penicillin/streptomycin (5.5 mL) (PAA Laboratories) and grown in flasks at 37 °C in an incubator with 5% CO2. For the studies with inhibitors, the cells were treated with 10 μM nitrobenzylthioinosine (NBTI, hENT inhibitor) or 1 μM EHNA (EHNA hydrochloride) or A-134974 (A-134974 dihydrochloride hydrate) and left for 5 min before adding the drug. The cells were then incubated for 2 h at 37 °C with 5% CO2.
(§3) The amount of ATP was used as a measurement of cell number and cell viability. ATP ViaLightTM plus assay kit (Lonza: Product No. LT07-121) to detect ATP in cells treated in luminescence compatible 96-well plates (initial concentration of cells was 1 × 10^4 cells/well) with Cordycepin and ProTides at concentrations of 0, 0.1, 0.5, 1, 5, and 10 μM, followed by incubation for 72 h at 37 °C in an incubator with 5% CO2. For inhibitor studies, 10 μM NBTI or 1 μM EHNA or A-134974 was added and left for 5 min before adding the drugs. After incubation, 50 μL of cell lysis reagent was added to the 96-well plates to release the intracellular ATP, followed by 100 μL of ATP monitoring reagent (AMR). The luminescent values of each well were determined using FLUOstar OPTIMA microplate reader (BMG Labtech), which converted ATP into light using luciferase enzyme. Therefore, the amount of luminescence produced was directly proportional to the amount of ATP.

CRL cell line = assay: ATP viability assay; settings: for CC50: Homo sapiens, read-out: LC50
Protocol: as §2, §3

HL-60 cell line = assay: ATP viability assay; settings: Homo sapiens
Protocol: as §2, §3

K562 cell line = assay: ATP viability assay; settings: Homo sapiens
Protocol: as §2, §3

SMILES | CC50 (CCRF-CEM) [µM] | MI% (HEL92.1.7) [%] | CC50 (HEL92.1.7) [µM] | CC50 (HL-60; HL-60, 72 h) [µM] | MI% (HS445) [%] | CC50 (HS445) [µM] | CC50 (HepG2; HepG2, 72 h) [µM] | CC50 (Jurkat) [µM] | MI% (Jurkat) [%] | CC50 (K562; K562, 72 h) [µM] | CC50 (KG-1) [µM] | CC50 (MIA PaCa-2) [µM] | MI% (MIA PaCa-2) [%] | CC50 (MOLT-4; MOLT-4, 72 h) [µM] | CC50 (NCI-H929) [µM] | MI% (NCI-H929) [%] | CC50 (RL) [µM] | MI% (RL) [%] | CC50 (RPMI-8226) [µM] | MI% (RPMI-8226) [%] | other results
Nc1ncnc2c1ncn2[C@@H]1O[C@H](CO)C[C@H]1O [3′-dA, 3′-Deoxyadenosine, reference compound] | > 198 | 88 | 68.9 | 76.8 | 2 | > 198 | 142 | > 198 | 20 | 59.3 | 70.8 | > 198 | 35 | 152 | > 198 | 24 | > 198 | 17 | > 198 | 1 | Emax (CCRF-CEM; maximum inhibitory effect over concentration range): 12%; Emax (HL-60; 72 h, HL-60, maximum inhibitory effect over concentration range): 88%; Emax (HepG2; 72 h, HepG2, maximum inhibitory effect over concentration range): 66%; Emax (K562; 72 h, K562, maximum inhibitory effect over concentration range): 88%; Emax (MOLT-4; 72 h, MOLT-4, maximum inhibitory effect over concentration range): 52%; CC50 (SW620): > 198 µM; MI% (SW620): 10%; CC50 (THP-1): > 198 µM; MI% (THP-1): –3%; CC50 (Z138): 12.2 µM; MI% (Z138): 95%; improvement of LC50 on inhibition of ADA with EHNA (CEM cell line; CEM): 16 fold; CC50 (CEM cell line; 72 h): 19.5 µM; CC50 (CEM cell line): 11.5 µM; improvement of LC50 on inhibition of ADA with EHNA (CRL cell line; CRL): 2 fold; CC50 (CRL cell line; 72 h): 24.5 µM; CC50 (CRL cell line): 7.3 µM; CC50 (HL-60 cell line; HL-60, 72 h, read-out: LC50): 11.4 µM; CC50 (K562 cell line; K562, 72 h, read-out: LC50): 10.9 µM
C[C@H](NP(=O)(OC[C@@H]1C[C@@H](O)[C@H](n2cnc3c(N)ncnc32)O1)Oc1ccccc1)C(=O)OCc1ccccc1 (stereo partly drawn) [Compound 7a, (Rp)- and (Sp)-3′-Deoxyadenosine 5′-O-phenyl-(benzoxy-L-alaninyl)-phosphate] | 2.36 | 100 | 8.07 | 17.8 | 98 | 30.5 | 18.7 | 1.44 | 100 | 6.1 | 17.4 | 6.85 | 96 | 0.51 | 6.07 | 100 | 3 | 93 | 14.7 | 96 | Emax (CCRF-CEM): 100%; Emax (HL-60; HL-60, 72 h): 97%; Emax (HepG2; HepG2, 72 h): 76%; fold more active than 3′-dA (Jurkat; Jurkat cell line, from LC50): approximately 200 fold; Emax (K562; K562, 72 h): 92%; Emax (MOLT-4; MOLT-4, 72 h): 98%; CC50 (SW620): 24.9 µM; MI% (SW620): 85%; CC50 (THP-1): 65.5 µM; MI% (THP-1): 74%; CC50 (Z138): 27 µM; MI% (Z138): 95%; LC50 change on ADA inhibition by EHNA (CEM cell line; CEM): did not lead to any LC50 changes; CC50 (CEM cell line; 72 h): 0.87 µM; CC50 (CEM cell line): 1.4 µM; CC50 (CRL cell line; 72 h): 2.1 µM; CC50 (CRL cell line): 3.6 µM; CC50 (HL-60 cell line; HL-60, 72 h, read-out: LC50): 4.6 µM; CC50 (K562 cell line; K562, 72 h, read-out: LC50): 2.4 µM
CCOC(=O)CCc1ccccc1OP(=O)(N[C@@H](C)C(=O)OCc1ccccc1)OC[C@@H]1C[C@@H](O)[C@H](n2cnc3c(N)ncnc32)O1 (some centres unmarked) [Compound 7e] | 40.1 | 99 | 14.5 | 78.5 | 92 | 42.7 | 96.1 | 4.75 | 100 | 175 | 102 | 12.1 | 101 | 12.6 | 7.57 | 100 | 7.26 | 90 | 31.1 | 106 | Emax (CCRF-CEM): 90%; Emax (HL-60; HL-60, 72 h): 74%; Emax (HepG2; HepG2, 72 h): 59%; Emax (K562; K562, 72 h): 61%; Emax (MOLT-4; MOLT-4, 72 h): 97%; CC50 (SW620): 43.4 µM; MI% (SW620): 90%; CC50 (THP-1): 36.7 µM; MI% (THP-1): 100%; CC50 (Z138): 68.2 µM; MI% (Z138): 76%; CC50 (CEM cell line; 72 h): 4.3 µM; CC50 (CRL cell line; 72 h): 3.4 µM; CC50 (HL-60 cell line; HL-60, Table S2, no inhibitors, 72 h, read-out: LC50 (the source's name)): 8.3 µM; CC50 (K562 cell line; K562, Table S2, no inhibitors, 72 h, read-out: LC50 (the source's name)): 6.3 µM
